# Measured values from patent publication US3978210A, “Antibiotic aculeacins” (Toyo Jozo Kabushiki Kaisha, priority 1974, dated 1976).
# Key:
# Helminthosporium oryzae = assay: Activity against fungi, giant colony growth inhibition; format: cell-based; details: Sabroud agar, 26°C., 7 to 14 days
# Protocol: (§1) 3. Activity against fungi:
# (§2) Since aculeacins have no fungicidal activity, fungi are inoculated in Sabroud agar medium containing several concentrations of aculeacins, and incubated at 26°C. 7 to 14 days. 80% growth inhibitory concentrations of aculeacins are measured by the ratio of area of giant colony to that of control without aculeacins.
# [1] = tested on: Collectotrichum linicolum; assay: as above; format: cell-based; details: Sabroud agar, 26°C., 7 to 14 days
# Protocol: as §1, §2
# Corynespora cassicola = assay: as above; format: cell-based; details: Sabroud agar, 26°C., 7 to 14 days
# Protocol: as §1, §2
# Ascochyta soyaecola = assay: as above; format: cell-based; details: Sabroud agar, 26°C., 7 to 14 days
# Protocol: as §1, §2
# Aspergillus fumigatus = assay: as above; format: cell-based; details: Sabroud agar, 26°C., 7 to 14 days
# Protocol: as §1, §2
# Cercospora kikuchii = assay: as above; format: cell-based; details: Sabroud agar, 26°C., 7 to 14 days
# Protocol: as §1, §2
# [2] = tested on: Fusarium oxysporum f. lini; assay: as above; format: cell-based; details: Sabroud agar, 26°C., 7 to 14 days
# Protocol: as §1, §2
# Trichophyton asteroides = assay: as above; format: cell-based; details: Sabroud agar, 26°C., 7 to 14 days
# Protocol: as §1, §2
# Sclerotium bataticola = assay: as above; format: cell-based; details: Sabroud agar, 26°C., 7 to 14 days
# Protocol: as §1, §2
# Trichophyton rubrum = assay: as above; format: cell-based; details: Sabroud agar, 26°C., 7 to 14 days
# Protocol: as §1, §2
# Glomerella cingulata = assay: as above; format: cell-based; details: Sabroud agar, 26°C., 7 to 14 days
# Protocol: as §1, §2
# Microsporum gypseum = assay: as above; format: cell-based; details: Sabroud agar, 26°C., 7 to 14 days
# Protocol: as §1, §2
# Diaporthe phaseolorum = assay: as above; format: cell-based; details: Sabroud agar, 26°C., 7 to 14 days
# Protocol: as §1, §2
# Candida albicans = assay: Activity against yeasts, minimum inhibitory concentration; format: cell-based; set-up: unit not given here; details: Sabroud agar, 30°C., 48 hours
# Protocol: (§3) 2. Activity against yeasts:
# (§4) Assay medium: Sabroud agar, at 30°C., for 48 hours.
# Candida parakrusei = assay: as above; format: cell-based; details: Sabroud agar, 30°C., 48 hours
# Protocol: as §3, §4
# Saccharomyces sake = assay: as above; format: cell-based; details: Sabroud agar, 30°C., 48 hours
# Protocol: as §3, §4
# Mycotorula japonica = assay: as above; format: cell-based; details: Sabroud agar, 30°C., 48 hours
# Protocol: as §3, §4
# Candida pseudotropicalis = assay: as above; format: cell-based; details: Sabroud agar, 30°C., 48 hours
# Protocol: as §3, §4
# Candida tropicalis = assay: as above; format: cell-based; details: Sabroud agar, 30°C., 48 hours
# Protocol: as §3, §4
# Torula utilis = assay: as above; format: cell-based; details: Sabroud agar, 30°C., 48 hours
# Protocol: as §3, §4
# Saccharomyces cerevisiae = assay: as above; format: cell-based; details: Sabroud agar, 30°C., 48 hours
# Protocol: as §3, §4
# Candida quilliermondii = assay: as above; format: cell-based; details: Sabroud agar, 30°C., 48 hours
# Protocol: as §3, §4
# Candida krusei = assay: as above; format: cell-based; details: Sabroud agar, 30°C., 48 hours
# Protocol: as §3, §4
# Cryptococcus neoiormans = assay: as above; format: cell-based; details: Sabroud agar, 30°C., 48 hours
# Protocol: as §3, §4
# mouse = assay: Acute toxicity on mouse, LD50; format: in vivo
# Text: 4. Acute toxicity on mouse:
# Aculeacins are almost insoluble in water, soluble in 1% sodium carboxy-methyl cellulose (CMC) solution and sodium deoxycholate (DOC). LD50 of aculeacin-A injection prepared by using those additives is as follows: […]
substance,measurement,setting,value
Aculeacin-A,80% growth inhibitory concentration,Helminthosporium oryzae,0.008 gamma/ml.
same,80% growth inhibitory concentration,[1],0.4 gamma/ml.
same,80% growth inhibitory concentration,Corynespora cassicola,2.0 gamma/ml.
same,80% growth inhibitory concentration,Ascochyta soyaecola,0.08 gamma/ml.
same,80% growth inhibitory concentration,Aspergillus fumigatus,0.5 gamma/ml.
same,80% growth inhibitory concentration,Cercospora kikuchii,4.0 gamma/ml.
same,80% growth inhibitory concentration,[2],2.0 gamma/ml.
same,80% growth inhibitory concentration,Trichophyton asteroides,0.004 gamma/ml.
same,80% growth inhibitory concentration,Sclerotium bataticola,0.08 gamma/ml.
same,80% growth inhibitory concentration,Trichophyton rubrum,0.006 gamma/ml.
same,80% growth inhibitory concentration,Glomerella cingulata,0.06 gamma/ml.
same,80% growth inhibitory concentration,Microsporum gypseum,0.008 gamma/ml.
same,80% growth inhibitory concentration,Diaporthe phaseolorum,0.01 gamma/ml.
same,minimum inhibitory concentration,Candida albicans; Candida albicans 1,0.2
same,minimum inhibitory concentration,Candida albicans; Candida albicans 2,< 0.1
same,minimum inhibitory concentration,Candida albicans; Candida albicans 3,< 0.1
same,minimum inhibitory concentration,Candida albicans; Candida albicans 4,0.2
same,minimum inhibitory concentration,Candida albicans; Candida albicans 5,1.6
same,minimum inhibitory concentration,Candida albicans; Candida albicans 6,< 0.1
same,minimum inhibitory concentration,Candida albicans; Candida albicans 7,3.2
same,minimum inhibitory concentration,Candida albicans; Candida albicans 8,0.1
same,minimum inhibitory concentration,Candida parakrusei,3.2
same,minimum inhibitory concentration,Saccharomyces sake,1.6
same,minimum inhibitory concentration,Mycotorula japonica,< 0.1
same,minimum inhibitory concentration,Candida pseudotropicalis,0.8
same,minimum inhibitory concentration,Candida tropicalis,> 100
same,minimum inhibitory concentration,Torula utilis,< 0.1
same,minimum inhibitory concentration,Saccharomyces cerevisiae,1.6
same,minimum inhibitory concentration,Candida quilliermondii,0.8
same,minimum inhibitory concentration,Candida krusei,0.8
same,minimum inhibitory concentration,Cryptococcus neoiormans,> 100
same,LD50,"mouse; i.m., in CMC",> 3460 mg/kg
same,LD50,"mouse; i.m., in DOC",600 mg/kg
same,LD50,"mouse; i.p., in CMC",600 mg/kg
same,LD50,"mouse; i.v., in DOC",350 mg/kg
same,LD50,"mouse; p.o., in CMC",> 3000 mg/kg
